Experimental data from patent US12186317B2, “Inhibitors of alpha-amino-beta-carboxymuconic acid semialdehyde decarboxylase” (TES Pharma S.r.l., priority 2018, dated 2025).
pIC50: −log10 of the molar value.

Biological target: T1, hACMSD (ACMSD1) (Homo sapiens, UniProt Q8TDX5)
T1 construct: made in house; host or cells: Pichia pastoris
Assay: Determination of ACMSD1 inhibition, spectrophotometrical in vitro assay (conversion of 3OH-anthranilic acid into ACMS)
Assay type: biochemical
Conditions: HAA concentration of 10 μM; recombinant ACMSD1 from Pichia pastoris; 25° C.; absorbance at 360 nm
Method: The activity of compounds as inhibitors of ACMSD1 is determined in a spectrophotometrical in vitro assay. The pre-assay mixture is incubated and a compound of Formula (I) or (II), or a pharmaceutically acceptable salt thereof, and ACMSD1 solution is then added. The effect of ACMS concentration on the enzyme activity is investigated by varying 3-hydroxyanthranilic acid (30H-HA) concentration in the pre-assay mixture. Kinetic parameters are calculated from the initial velocity data using a Lineweaver-Burk plot.
The pre-assay mixture consisting of 3-hydroxyanthranilic acid (30H-HA), 3-hydroxyanthranilic acid, 3,4-diOxygenase (HAO), and a dialyzed crude extract of E. coli BL21 (DE3) cells expressing the recombinant enzyme, was incubated at 25° C. with monitoring of the increase in absorbance at 360 nm due to the formation of ACMS from 30H-HA. After the reaction was completed within ˜2 mins, an aliquot of ACMSD1 solution (prepared and purified from Pichia pastoris overexpressing the recombinant enzyme) was added, and the decrease in absorbance at 360 nm was followed at 15 second intervals. The effect of ACMS concentration on the enzyme activity was investigated by varying 30H-HA concentration from 2 to 20 μM. Kinetic parameters were calculated from the initial velocity data by using the Lineweaver-Burk plot.
The rate of the decrease in absorbance caused by ACMSD1 was calculated by subtracting that of the control reaction mixture without ACMSD from that described above. One unit of ACMSD activity was indicated as the amount of enzyme that converts 1 mmol of ACMS per minute at 25° C.
The enzymatic activity was determined at a HAA concentration of 10 μM in the presence of the compounds in Table 1 below. […] In Table 1, A is <0.1 μM; B is 0.1 to 1 μM; C is 1 to 10 μM; and D is >10 μM.

T1 sequence (Q8TDX5 whole entry): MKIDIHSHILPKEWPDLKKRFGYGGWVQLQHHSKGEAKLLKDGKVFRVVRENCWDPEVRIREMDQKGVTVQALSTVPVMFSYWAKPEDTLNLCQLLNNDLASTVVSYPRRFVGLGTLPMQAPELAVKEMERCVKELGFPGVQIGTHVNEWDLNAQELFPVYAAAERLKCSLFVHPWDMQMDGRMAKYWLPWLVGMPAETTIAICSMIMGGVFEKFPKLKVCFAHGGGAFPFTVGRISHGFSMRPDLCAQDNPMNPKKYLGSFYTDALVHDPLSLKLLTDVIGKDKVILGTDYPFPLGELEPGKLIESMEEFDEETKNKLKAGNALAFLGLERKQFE

Compound | pIC50
N#Cc1c(-c2cccs2)nc(SCCC(=O)O)[nH]c1=O [I-37] | 5.00 to 6.00
O=C(O)Cc1cccc(CSc2nc(C(F)(F)F)cc(=O)[nH]2)c1 [I-28, [3-(6-Oxo-4-trifluoromethyl-1,6-dihydro-pyrimidin-2-ylsulfanylmethyl)-phenyl]-acetic acid] | 6.00 to 7.00
N#Cc1c(-c2cccs2)nc(NCc2cccc(CC(=O)O)c2)[nH]c1=O [I-50] | 5.00 to 6.00
N#Cc1c(Cc2ccccc2)nc(SCc2cccc(-c3nnn[nH]3)c2)[nH]c1=O [I-34, 4-Benzyl-6-oxo-2-[3-(1H-tetrazol-5-yl)-benzylsulfanyl]-1,6-dihydro-pyrimidine-5 carbonitrile] | > 7.00
O=C(O)CSc1nc(C(F)(F)F)cc(=O)[nH]1 [I-27, (6-Oxo-4-trifluoromethyl-1,6-dihydro-pyrimidin-2-ylsulfanyl)-acetic acid] | 6.00 to 7.00
N#Cc1c(-c2cccs2)nc(NCc2cccc(C(=O)O)c2)[nH]c1=O [I-48] | 5.00 to 6.00
O=C(O)c1cccc(CSc2nc(C(F)(F)F)cc(=O)[nH]2)c1 [I-31, 3-(6-Oxo-4-trifluoromethyl-1,6-dihydro-pyrimidin-2-ylsulfanylmethyl)-benzoic acid] | 5.00 to 6.00
N#Cc1c(NC2CC2)nc(SCc2cccc(CC(=O)O)c2)nc1-c1cccs1 [I-6, [3-(5-Cyano-4-cyclopropylamino-6-thiophen-2-yl-pyrimidin-2-ylsulfanylmethyl)-phenyl]-acetic acid] | 5.00 to 6.00
N#Cc1c(-c2cccs2)nc(N[C@H]2CC[C@H](C(=O)O)CC2)[nH]c1=O [I-46] | < 5.00
N#Cc1c(C(F)(F)F)cc(=O)[nH]c1SCc1cccc(CC(=O)O)c1 [I-36, [3-(3-cyano-6-oxo-4-trifluoromethyl-1,6-dihydro-pyridin-2-ylsulfanylmethyl)-phenyl]-acetic acid] | 6.00 to 7.00
N#Cc1c(SCc2cccc(CC(=O)O)c2)[nH]c(=O)c(C#N)c1-c1cccs1 [I-21, [3-(3,5-Dicyano-6-oxo-4-thiophen-2-yl-1,6-dihydro-pyridin-2-ylsulfanylmethyl)-phenyl]-acetic acid] | > 7.00
N#Cc1c(Cc2ccccc2)nc(SCC(=O)O)[nH]c1=O [I-30, (4-Benzyl-5-cyano-6-oxo-1,6-dihydro-pyrimidin-2-ylsulfanyl)-acetic acid] | 6.00 to 7.00
N#Cc1c(-c2cccs2)nc(SCc2cccc(-c3cc(F)c(O)c(F)c3)c2)[nH]c1=O [I-3, 2-({[3-(3,5-difluoro-4-hydroxyphenyl)phenyl]methyl}sulfanyl)-6-oxo-4-(thiophen-2-yl)-1,6-dihydropyrimidine-5-carbonitrile] | > 7.00
N#Cc1cccc(CSc2nc(-c3cccs3)c(C#N)c(=O)[nH]2)c1 [I-11, 2-(3-Cyano-benzylsulfanyl)-6-oxo-4-thiophen-2-yl-1,6-dihydro-pyrimidine-5-carbonitrile] | 5.00 to 6.00
N#Cc1c(Cc2ccccc2)nc(SCc2cccc(C(=O)O)c2)[nH]c1=O [I-35, 3-(4-Benzyl-5-cyano-6-oxo-1,6-dihydro-pyrimidin-2-ylsulfanylmethyl)-benzoic acid] | 6.00 to 7.00
N#Cc1c(-c2cccs2)nc(NCc2cccc(Cc3nnn[nH]3)c2)[nH]c1=O [I-49] | > 7.00
O=c1cc(C(F)(F)F)nc(SCc2nnn[nH]2)[nH]1 [I-26, 2-(1H-Tetrazol-5-ylmethylsulfanyl)-6-trifluoromethyl-3H-pyrimidin-4-one] | > 7.00
N#Cc1c(Cc2ccccc2)nc(SCc2cc(F)c(O)c(F)c2)[nH]c1=O [I-41, 4-Benzyl-2-(3,5-difluoro-4-hydroxy-benzylsulfanyl)-6-oxo-1,6-dihydro-pyrimidine-5-carbonitrile] | 5.00 to 6.00
N#Cc1c(-c2cccs2)nc(SCC(=O)O)[nH]c1=O [I-24, (5-Cyano-6-oxo-4-thiophen-2-yl-1,6-dihydro-pyrimidin-2-ylsulfanyl)-acetic acid] | 5.00 to 6.00
N#Cc1c(SCc2cccc(-c3nnn[nH]3)c2)[nH]c(=O)c(C#N)c1-c1cccs1 [I-22, 2-Oxo-6-[3-(1H-tetrazol-5-yl)-benzylsulfanyl]-4-thiophen-2-yl-1,2-dihydro-pyridine-3,5-dicarbonitrile] | > 7.00
N#Cc1c(-c2cccs2)nc(SCc2cccc(CC(=O)O)c2)nc1N1CCNCC1 [I-16, [3-(5-Cyano-4-piperazin-1-yl-6-thiophen-2-yl-pyrimidin-2-ylsulfanylmethyl)-phenyl]-acetic acid] | < 5.00
N#Cc1c(-c2cccs2)nc(NCc2ccc(-c3nnn[nH]3)cc2)[nH]c1=O [I-51] | 6.00 to 7.00
N#Cc1c(Cc2ccccc2)nc(SCc2nnn[nH]2)[nH]c1=O [I-32] | > 7.00
N#CCc1cccc(CSc2nc(-c3cccs3)c(C#N)c(=O)[nH]2)c1 [I-13, 2-(3-Cyanomethyl-benzylsulfanyl)-6-oxo-4-thiophen-2-yl-1,6-dihydro-pyrimidine-5-carbonitrile] | 5.00 to 6.00
N#Cc1c(-c2cccs2)nc(SCc2cccc(C(N)=O)c2)[nH]c1=O [I-2, 3-(5-Cyano-6-oxo-4-thiophen-2-yl-1,6-dihydro-pyrimidin-2-ylsulfanylmethyl)-benzamide] | 6.00 to 7.00
Cn1nnc(-c2cccc(CSc3nc(-c4cccs4)c(C#N)c(=O)[nH]3)c2)n1 [I-14, 2-[3-(2-Methyl-2H-tetrazol-5-yl)-benzylsulfanyl]-6-oxo-4-thiophen-2-yl-1,6-dihydro-pyrimidine-5-carbonitrile] | 5.00 to 6.00
N#Cc1c(N)nc(SCc2cccc(CC(=O)O)c2)nc1-c1cccs1 [I-7, [3-(4-Amino-5-cyano-6-thiophen-2-yl-pyrimidin-2-ylsulfanylmethyl)-phenyl]-acetic acid] | 6.00 to 7.00
